Calls of active or inactive are those of the source. The rule behind the calls is not given here.
Tests used:
[1] = molecular target: Protein arginine N-methyltransferase 5 (Homo sapiens, UniProt O14744); test: Inhibition of PRMT5 (unknown origin)
A549 [2] = test: Antiproliferative activity against human A549 cells assessed as reduction in cell viability at 25 uM incubated for 24 hrs by SRB assay; format: functional, cell-based
A549 [3] = test: Antiproliferative activity against human A549 cells assessed as inhibition of cell growth incubated for 24 hrs by SRB assay; format: functional, cell-based; settings: A549, 24 h
[4] = Cmax in Sprague-Dawley rat at 10 mg/kg, po measured upto 24 hrs by LC-MS/MS analysis; format: ADME, organism-based; settings: in vivo
A549 [5] = test: Upregulation of hnRNP E1 gene expression in human A549 cells at 12.5 to 50 uM incubated for 24 hrs by Western blot analysis; format: functional, cell-based; settings: dose 12.5-50 µM
[6] = Antiproliferative activity against human L02 cells assessed as inhibition of cell growth incubated for 24 hrs by SRB assay; format: toxicity, cell-based
MDA-MB-231 = test: Antiproliferative activity against human MDA-MB-231 cells assessed as inhibition of cell growth incubated for 24 hrs by SRB assay; format: functional, cell-based; settings: MDA-MB-231, 24 h
[7] = Volume of distribution in Sprague-Dawley rat at 2 mg/kg, iv measured upto 24 hrs by LC-MS/MS analysis; format: ADME, organism-based; settings: in vivo
HepG2 = test: Antiproliferative activity against human HepG2 cells assessed as inhibition of cell growth incubated for 24 hrs by SRB assay; format: functional, cell-based; settings: HepG2, 24 h
[8] = Metabolic stability in human liver microsome assessed as half life measured upto 4 hrs in presence of NADPH by LC-MS/MS analysis; format: ADME; settings: liver microsomes
A549 [9] = test: Induction of apoptosis in human A549 cells transfected in hnRNP E1 siRNA assessed as reduction in cell number incubated for 24 hrs by Hoechst 33258 staining based analysis; format: functional
[10] = AUC (0 to t) in Sprague-Dawley rat at 2 mg/kg, iv measured upto 24 hrs by LC-MS/MS analysis; format: ADME, organism-based; settings: in vivo
MCF7 = test: Antiproliferative activity against human MCF7 cells assessed as inhibition of cell growth incubated for 24 hrs by SRB assay; format: functional, cell-based; settings: MCF7, 24 h
[11] = molecular target: T1, Histone-arginine methyltransferase CARM1 (Homo sapiens, UniProt Q86X55); test: Inhibition of PRMT4 (unknown origin)
T1 sequence (Q86X55 whole entry): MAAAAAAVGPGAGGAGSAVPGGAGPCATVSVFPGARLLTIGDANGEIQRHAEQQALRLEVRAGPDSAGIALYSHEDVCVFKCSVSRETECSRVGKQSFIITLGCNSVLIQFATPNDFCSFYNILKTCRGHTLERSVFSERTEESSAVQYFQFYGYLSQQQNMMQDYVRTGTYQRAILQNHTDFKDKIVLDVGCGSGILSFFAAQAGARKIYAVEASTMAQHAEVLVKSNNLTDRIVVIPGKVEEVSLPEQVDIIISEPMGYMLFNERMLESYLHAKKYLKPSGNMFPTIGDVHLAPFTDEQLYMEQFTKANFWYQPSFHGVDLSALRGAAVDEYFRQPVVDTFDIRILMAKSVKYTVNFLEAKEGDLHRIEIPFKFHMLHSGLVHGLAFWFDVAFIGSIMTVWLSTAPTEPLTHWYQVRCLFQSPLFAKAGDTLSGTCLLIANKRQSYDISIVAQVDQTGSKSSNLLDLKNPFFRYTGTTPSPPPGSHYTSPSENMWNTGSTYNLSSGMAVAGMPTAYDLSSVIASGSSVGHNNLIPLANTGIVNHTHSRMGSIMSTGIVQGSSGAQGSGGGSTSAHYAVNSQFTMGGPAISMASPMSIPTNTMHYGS

[12] = molecular target: Protein arginine N-methyltransferase 1 (Homo sapiens, UniProt Q99873); test: Inhibition of PRMT1 (unknown origin)
Protein arginine N-methyltransferase 1, sequence (Q99873 whole entry): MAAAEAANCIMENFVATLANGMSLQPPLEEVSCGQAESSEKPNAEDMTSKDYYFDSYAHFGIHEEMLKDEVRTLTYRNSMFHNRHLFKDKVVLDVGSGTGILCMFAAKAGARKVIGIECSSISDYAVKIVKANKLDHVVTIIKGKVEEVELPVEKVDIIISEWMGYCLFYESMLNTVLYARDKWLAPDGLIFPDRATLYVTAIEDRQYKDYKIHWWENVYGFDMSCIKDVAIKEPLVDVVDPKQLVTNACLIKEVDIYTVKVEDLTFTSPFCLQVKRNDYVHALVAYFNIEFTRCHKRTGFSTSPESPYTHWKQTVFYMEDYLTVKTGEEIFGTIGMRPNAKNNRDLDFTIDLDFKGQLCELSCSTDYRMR

[13] = AUC (0 to infinity) in Sprague-Dawley rat at 2 mg/kg, iv measured upto 24 hrs by LC-MS/MS analysis; format: ADME, organism-based; settings: in vivo
[14] = Oral bioavailability in Sprague-Dawley rat at 10 mg/kg measured upto 24 hrs by LC-MS/MS analysis; format: ADME, organism-based; settings: in vivo
A549 [15] = test: Inhibition of cell migration human A549 cells assessed as decrease in migration distance at 12.5 to 25 uM incubated upto 12 hrs by wound healing assay; format: functional, cell-based; settings: dose 12.5-25 µM
[16] = Clearance in Sprague-Dawley rat at 2 mg/kg, iv measured upto 24 hrs by LC-MS/MS analysis; format: ADME, organism-based; settings: in vivo
A549 [17] = test: Induction of apoptosis in human A549 cells assessed as nuclear fragmentation incubated for 24 hrs by Hoechst 33342 staining based analysis; format: functional, cell-based; settings: dose 12.5-50 µM
[18] = AUC (0 to t) in Sprague-Dawley rat at 10 mg/kg, po measured upto 24 hrs by LC-MS/MS analysis; format: ADME, organism-based; settings: in vivo
A549 [19] = test: Anticancer activity against human A549 cells assessed as decrease in cell number incubated for 24 hrs by SRB assay; format: functional, cell-based; settings: dose 12.5-50 µM
[20] = Half life in Sprague-Dawley rat at 2 mg/kg, iv measured upto 24 hrs by LC-MS/MS analysis; format: ADME, organism-based; settings: in vivo
[21] = Metabolic stability in rat liver microsome assessed as half life measured upto 4 hrs in presence of NADPH by LC-MS/MS analysis; format: ADME; settings: liver microsomes
[22] = Bioavailability in Sprague-Dawley rat at 2 mg/kg, iv measured upto 24 hrs by LC-MS/MS analysis; format: ADME, organism-based; settings: in vivo
[23] = Tmax in Sprague-Dawley rat at 10 mg/kg, po measured upto 24 hrs by LC-MS/MS analysis; format: ADME, organism-based; settings: in vivo
A549 [24] = test: Inhibition of cell migration human A549 cells transfected with hnRNP E1 siRNA incubated upto 12 hrs by wound healing assay; format: functional, cell-based
[25] = Half life in Sprague-Dawley rat at 10 mg/kg, po measured upto 24 hrs by LC-MS/MS analysis; format: ADME, organism-based; settings: in vivo
[26] = Cmax in Sprague-Dawley rat at 2 mg/kg, iv measured upto 24 hrs by LC-MS/MS analysis; format: ADME, organism-based; settings: in vivo
A549 [27] = test: Induction of apoptosis in human A549 cells at 2.5 to 50 uM incubated for 24 hrs by Hoechst 33342 staining based analysis; format: functional; settings: dose 2.5-50 µM
[28] = AUC (0 to infinity) in Sprague-Dawley rat at 10 mg/kg, po measured upto 24 hrs by LC-MS/MS analysis; format: ADME, organism-based; settings: in vivo

Protein arginine N-methyltransferase 5, sequence (O14744 whole entry): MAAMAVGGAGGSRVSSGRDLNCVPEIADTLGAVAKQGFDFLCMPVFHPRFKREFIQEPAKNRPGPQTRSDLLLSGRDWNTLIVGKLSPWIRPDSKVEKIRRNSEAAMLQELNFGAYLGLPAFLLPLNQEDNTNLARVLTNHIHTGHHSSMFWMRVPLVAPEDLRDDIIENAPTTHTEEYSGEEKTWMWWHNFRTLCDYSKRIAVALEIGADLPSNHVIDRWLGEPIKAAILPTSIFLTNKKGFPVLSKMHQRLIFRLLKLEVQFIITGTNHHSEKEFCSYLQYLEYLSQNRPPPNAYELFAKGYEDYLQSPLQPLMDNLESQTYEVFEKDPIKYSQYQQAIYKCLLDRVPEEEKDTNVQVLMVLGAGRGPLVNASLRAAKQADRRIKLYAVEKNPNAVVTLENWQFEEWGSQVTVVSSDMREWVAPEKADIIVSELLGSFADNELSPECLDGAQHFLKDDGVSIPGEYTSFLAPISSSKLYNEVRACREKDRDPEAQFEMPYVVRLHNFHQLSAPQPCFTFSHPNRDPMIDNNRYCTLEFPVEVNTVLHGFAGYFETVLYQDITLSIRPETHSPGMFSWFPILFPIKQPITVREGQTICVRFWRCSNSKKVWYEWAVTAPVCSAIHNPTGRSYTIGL

COc1cc2c(cc1OC)CN(C[C@@H](O)Cn1ccc3ccc(Br)cc31)CC2
IC50 [1]: 61.4 µM
Activity (A549 [2]): Active

Cc1cc2ccccc2n1C[C@H](O)CN1CCc2ccccc2C1
IC50 [1]: 1.3 µM
Activity (A549 [2]): Active

COc1ccc2c(ccn2C[C@H](O)CN2CCc3ccccc3C2)c1
IC50 (A549 [3]): 19.1 µM
Cmax [4]: 160 ng/mL
Activity (A549 [5]): Active
IC50 at 24 h [6]: > 100 µM
IC50 (MDA-MB-231): 20.5 µM
Vd [7]: 9.3 L/kg
IC50 (HepG2): 27.7 µM
half-life [8]: 2.21 h
Activity (A549 [9]): Active
AUC(0-t) at 24 h [10]: 1250 ng·h/mL
IC50 (MCF7): 23.6 µM
IC50 [11]: > 20 µM
IC50 [12]: > 20 µM
AUC(0-inf) [13]: 1280 ng·h/mL
bioavailability [14]: 31.4%
IC50 [1]: 0.31 µM
Activity (A549 [15]): Active
clearance [16]: 26.7 mL/min/kg
Activity (A549 [17]): Dose-Dependent Effect
AUC(0-t) at 24 h [18]: 1970 ng·h/mL
Activity (A549 [19]): Dose-Dependent Effect
half-life [20]: 4.1 h
half-life [21]: 0.342 h
F [22]: 100%
Tmax [23]: 2.7 h
Activity (A549 [24]): inactive
half-life [25]: 6.7 h
Cmax [26]: 182 ng/mL
Activity (A549 [27]): 68%
Activity (A549 [2]): Active
AUC(0-inf) [28]: 2180 ng·h/mL

COc1ccc2c(c1)CCN(C[C@@H](O)Cn1ccc3cc(OC)ccc31)C2
IC50 [1]: 36.3 µM
Activity (A549 [2]): Active

COc1ccc2c(ccn2C[C@H](O)CN2CCc3cc(O)ccc3C2)c1
IC50 [1]: 0.12 µM
Activity (A549 [2]): Active

Cc1cccc2c1ccn2C[C@H](O)CN1CCc2ccccc2C1
IC50 [1]: 1.8 µM
Activity (A549 [2]): Active

CC(=O)c1cn(C[C@H](O)CN2CCc3ccccc3C2)c2ccccc12
IC50 [1]: 2.52 µM
Activity (A549 [2]): Active

N#Cc1ccc2ccn(C[C@H](O)CN3CCc4ccccc4C3)c2c1
IC50 [1]: 1.21 µM
Activity (A549 [2]): Active

COc1cccc2c1ccn2C[C@H](O)CN1CCc2ccccc2C1
IC50 [1]: 4.58 µM
Activity (A549 [2]): Active

COc1ccc2c(ccn2C[C@H](O)CN2CCc3ccccc3C2C)c1 (stereo not given in full)
IC50 [1]: 14.8 µM
Activity (A549 [2]): Active

N#Cc1ccc2c(ccn2C[C@H](O)CN2CCc3ccccc3C2)c1
IC50 [1]: 12 µM
Activity (A549 [2]): Active

N#Cc1cccc2c1ccn2C[C@H](O)CN1CCc2ccccc2C1
IC50 [1]: 5.01 µM
Activity (A549 [2]): Active

O[C@H](CN1CCc2ccccc2C1)Cn1ccc2c(F)cccc21
IC50 [1]: 1.7 µM
Activity (A549 [2]): Active

O[C@H](CN1CCc2ccc(Br)cc2C1)Cn1ccc2ccc(Br)cc21
IC50 [1]: 3.25 µM
Activity (A549 [2]): Active

COc1ccc2c(ccn2C[C@H](O)CN2CCc3ccc(Br)cc3C2)c1
IC50 [1]: 33.2 µM
Activity (A549 [2]): Active

O[C@H](CN1CCc2ccccc2C1)Cn1ccc2ccccc21
IC50 [1]: 0.85 µM
Activity (A549 [2]): Active

O[C@H](CN1CCc2cc(Br)ccc2C1)Cn1ccc2ccc(Br)cc21
IC50 [1]: 2.44 µM
Activity (A549 [2]): Active

Cc1ccc2ccn(C[C@H](O)CN3CCc4ccccc4C3)c2c1
IC50 [1]: 6.4 µM
Activity (A549 [2]): Active

Oc1ccc2c(c1)CCN(C[C@@H](O)Cn1ccc3ccc(Br)cc31)C2
IC50 (A549 [3]): 14.2 µM
Activity (A549 [5]): Active
IC50 at 24 h [6]: > 100 µM
IC50 (MDA-MB-231): 21.3 µM
IC50 (HepG2): 58.1 µM
half-life [8]: 0.363 h
Activity (A549 [9]): Active
IC50 (MCF7): 28.9 µM
IC50 [11]: > 20 µM
IC50 [12]: 10.2 µM
Activity (A549 [15]): Active
Activity (A549 [17]): Dose-Dependent Effect
Activity (A549 [19]): Dose-Dependent Effect
half-life [21]: 0.0783 h
Activity (A549 [24]): inactive
Activity (A549 [27]): 68%
Activity (A549 [2]): Active

N#CCc1cn(C[C@H](O)CN2CCc3ccccc3C2)c2ccccc12
IC50 [1]: 4.12 µM
Activity (A549 [2]): Active

Cc1ccc2c(ccn2C[C@H](O)CN2CCc3ccccc3C2)c1
IC50 [1]: 0.62 µM
Activity (A549 [2]): Active

O[C@H](CN1CCc2ccccc2C1)Cn1ccc2cc(Cl)ccc21
IC50 [1]: 8.2 µM
Activity (A549 [2]): Active

CC1c2ccccc2CCN1C[C@@H](O)Cn1ccc2ccc(Br)cc21 (stereo not given in full)
Activity (A549 [2]): Active

COc1ccc2c(ccn2C[C@H](O)CN2CCc3cc(Br)ccc3C2)c1
IC50 [1]: 51.3 µM
Activity (A549 [2]): Active

COc1ccc2c(c1)CCN(C[C@@H](O)Cn1ccc3ccc(Br)cc31)C2
IC50 [1]: 31.8 µM
Activity (A549 [2]): Active

Cc1cc2cc(F)ccc2n1C[C@H](O)CN1CCc2ccccc2C1
IC50 [1]: 22.5 µM
Activity (A549 [2]): Active

O[C@H](CN1CCc2ccccc2C1)Cn1ccc2ccc(Cl)cc21
IC50 [1]: 0.53 µM
Activity (A549 [2]): Active

O=C(NC[C@H](O)CN1CCc2ccccc2C1)c1ccc2c(c1)CCN(C(=O)c1ccc(Br)cc1)C2
Cmax [4]: 77.1 ng/mL
half-life [8]: 1.45 h
IC50 [1]: 0.008 µM
AUC(0-t) at 24 h [18]: 223 ng·h/mL
half-life [21]: 0.173 h
Tmax [23]: 0.3 h
half-life [25]: 2.31 h
AUC(0-inf) [28]: 233 ng·h/mL

O[C@H](CN1CCc2ccccc2C1)Cn1ccc2cc(F)ccc21
IC50 [1]: 18.8 µM
Activity (A549 [2]): Active

O[C@H](CN1CCc2ccccc2C1)Cn1ccc2ccc(Br)cc21
IC50 (A549 [3]): 29.5 µM
IC50 at 24 h [6]: > 100 µM
IC50 (MDA-MB-231): 60.1 µM
IC50 (HepG2): 16.8 µM
IC50 (MCF7): 25.2 µM
IC50 [1]: 0.38 µM
Activity (A549 [2]): Active

Cc1cn(C[C@H](O)CN2CCc3ccccc3C2)c2ccccc12
IC50 [1]: 3.22 µM
Activity (A549 [2]): Active

COc1ccc2c(ccn2C[C@H](O)CN2CCc3cc(OC)c(OC)cc3C2)c1
IC50 [1]: 40.4 µM
Activity (A549 [2]): Active

N#Cc1cn(C[C@H](O)CN2CCc3ccccc3C2)c2ccccc12
IC50 [1]: 2.1 µM
Activity (A549 [2]): Active

Source: ChEMBL document CHEMBL5620428, “Discovery of tetrahydroisoquinolineindole derivatives as first dual PRMT5 inhibitors/hnRNP E1 upregulators: Design, synthesis and biological evaluation” (Eur J Med Chem, 2023)
